Molecules are shown by their SMILES.

Common to all, as to experiment: biochemical
Holding throughout (type): biochemical

For assay [1], the target named is T1, 382 unique human kinases (Homo sapiens, UniProt Q8TF76).
T1 construct: purchased Reaction Biology (HotSpot contract assay)
T1 sequence (Q8TF76 1-798): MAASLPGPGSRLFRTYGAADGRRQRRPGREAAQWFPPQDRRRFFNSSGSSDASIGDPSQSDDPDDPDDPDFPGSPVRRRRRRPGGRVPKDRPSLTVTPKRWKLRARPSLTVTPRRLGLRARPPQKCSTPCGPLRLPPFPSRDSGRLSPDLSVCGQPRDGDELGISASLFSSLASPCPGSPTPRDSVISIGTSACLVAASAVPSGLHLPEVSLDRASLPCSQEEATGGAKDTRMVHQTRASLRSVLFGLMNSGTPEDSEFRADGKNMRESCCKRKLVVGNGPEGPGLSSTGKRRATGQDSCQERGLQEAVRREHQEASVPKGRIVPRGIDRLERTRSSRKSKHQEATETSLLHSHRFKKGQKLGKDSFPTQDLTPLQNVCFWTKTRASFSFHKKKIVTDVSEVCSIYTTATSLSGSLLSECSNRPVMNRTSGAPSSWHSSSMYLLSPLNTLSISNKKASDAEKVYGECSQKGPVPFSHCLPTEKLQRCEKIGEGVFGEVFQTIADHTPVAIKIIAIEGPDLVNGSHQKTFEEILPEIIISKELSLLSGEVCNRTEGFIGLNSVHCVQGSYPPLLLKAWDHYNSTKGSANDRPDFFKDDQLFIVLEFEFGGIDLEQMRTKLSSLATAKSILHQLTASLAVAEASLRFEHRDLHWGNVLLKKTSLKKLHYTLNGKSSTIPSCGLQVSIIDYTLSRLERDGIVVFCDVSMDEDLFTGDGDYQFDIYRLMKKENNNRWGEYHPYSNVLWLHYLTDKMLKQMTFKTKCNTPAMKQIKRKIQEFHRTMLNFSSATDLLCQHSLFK
The following applies: Haspin, 10 uM; for remaining activity at 10 µM: read-out: % Enzyme Activity (relative to DMSO controls).

Assay [2] addresses T2, 382 unique human kinases (Homo sapiens, UniProt Q9NR20).
T2 construct: purchased Reaction Biology (HotSpot contract assay)
T2 sequence (Q9NR20 1-520): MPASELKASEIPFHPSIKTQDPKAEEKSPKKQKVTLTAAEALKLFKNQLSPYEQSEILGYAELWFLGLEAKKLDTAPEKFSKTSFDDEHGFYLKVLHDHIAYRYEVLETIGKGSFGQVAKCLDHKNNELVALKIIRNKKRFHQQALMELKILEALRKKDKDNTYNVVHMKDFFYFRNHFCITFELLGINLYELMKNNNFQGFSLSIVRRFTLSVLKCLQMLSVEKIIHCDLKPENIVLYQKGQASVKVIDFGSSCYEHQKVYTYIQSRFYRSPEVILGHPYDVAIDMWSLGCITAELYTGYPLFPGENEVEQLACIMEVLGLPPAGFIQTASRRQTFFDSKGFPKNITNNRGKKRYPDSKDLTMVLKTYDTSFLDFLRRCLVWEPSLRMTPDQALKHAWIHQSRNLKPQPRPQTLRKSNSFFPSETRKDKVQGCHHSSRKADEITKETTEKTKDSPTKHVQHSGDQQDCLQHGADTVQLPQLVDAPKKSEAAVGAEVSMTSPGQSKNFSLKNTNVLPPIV
To be noted: DYRK4, 10 uM; for remaining activity at 10 µM: read-out: % Enzyme Activity (relative to DMSO controls).

Assay [3] deals with T3, 382 unique human kinases (Homo sapiens, UniProt P34947).
T3 construct: purchased Reaction Biology (HotSpot contract assay)
The following applies: GRK5, 10 uM; for remaining activity at 10 µM: read-out: % Enzyme Activity (relative to DMSO controls).

The target of assay [4] is T4, 382 unique human kinases (Homo sapiens, UniProt P36888, D835Y).
T4 construct: purchased Reaction Biology (HotSpot contract assay)
T4 sequence (P36888 27-993 D835Y): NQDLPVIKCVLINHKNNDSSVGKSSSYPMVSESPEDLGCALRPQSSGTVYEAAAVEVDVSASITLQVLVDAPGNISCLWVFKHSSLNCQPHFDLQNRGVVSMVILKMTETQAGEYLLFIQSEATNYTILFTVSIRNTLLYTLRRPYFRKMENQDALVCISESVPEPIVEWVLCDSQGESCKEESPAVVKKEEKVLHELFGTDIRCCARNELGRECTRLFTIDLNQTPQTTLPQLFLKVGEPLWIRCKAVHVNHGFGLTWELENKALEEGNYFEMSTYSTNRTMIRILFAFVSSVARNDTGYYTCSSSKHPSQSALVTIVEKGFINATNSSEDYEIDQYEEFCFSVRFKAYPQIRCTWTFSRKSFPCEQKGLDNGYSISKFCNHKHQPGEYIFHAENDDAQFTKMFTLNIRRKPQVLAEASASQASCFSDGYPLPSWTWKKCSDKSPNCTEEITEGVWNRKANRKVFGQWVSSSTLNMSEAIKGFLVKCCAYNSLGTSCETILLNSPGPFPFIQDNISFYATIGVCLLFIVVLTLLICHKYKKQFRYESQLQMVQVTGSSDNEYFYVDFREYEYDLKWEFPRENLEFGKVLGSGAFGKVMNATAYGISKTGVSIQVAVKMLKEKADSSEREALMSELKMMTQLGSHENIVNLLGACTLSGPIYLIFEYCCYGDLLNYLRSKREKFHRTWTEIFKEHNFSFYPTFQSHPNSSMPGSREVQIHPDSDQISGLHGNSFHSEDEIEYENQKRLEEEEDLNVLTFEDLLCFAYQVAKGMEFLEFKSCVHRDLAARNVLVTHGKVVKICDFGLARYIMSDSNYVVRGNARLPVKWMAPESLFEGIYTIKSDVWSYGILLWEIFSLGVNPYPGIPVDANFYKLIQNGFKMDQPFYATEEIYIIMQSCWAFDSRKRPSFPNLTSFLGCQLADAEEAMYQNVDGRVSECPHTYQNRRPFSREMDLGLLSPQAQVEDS
To be noted: FLT3 (D835Y), [ATP] 20 µM, compound 10 uM; for remaining activity at 10 µM: read-out: % Enzyme Activity (relative to DMSO controls).

T3 sequence (P34947 whole entry): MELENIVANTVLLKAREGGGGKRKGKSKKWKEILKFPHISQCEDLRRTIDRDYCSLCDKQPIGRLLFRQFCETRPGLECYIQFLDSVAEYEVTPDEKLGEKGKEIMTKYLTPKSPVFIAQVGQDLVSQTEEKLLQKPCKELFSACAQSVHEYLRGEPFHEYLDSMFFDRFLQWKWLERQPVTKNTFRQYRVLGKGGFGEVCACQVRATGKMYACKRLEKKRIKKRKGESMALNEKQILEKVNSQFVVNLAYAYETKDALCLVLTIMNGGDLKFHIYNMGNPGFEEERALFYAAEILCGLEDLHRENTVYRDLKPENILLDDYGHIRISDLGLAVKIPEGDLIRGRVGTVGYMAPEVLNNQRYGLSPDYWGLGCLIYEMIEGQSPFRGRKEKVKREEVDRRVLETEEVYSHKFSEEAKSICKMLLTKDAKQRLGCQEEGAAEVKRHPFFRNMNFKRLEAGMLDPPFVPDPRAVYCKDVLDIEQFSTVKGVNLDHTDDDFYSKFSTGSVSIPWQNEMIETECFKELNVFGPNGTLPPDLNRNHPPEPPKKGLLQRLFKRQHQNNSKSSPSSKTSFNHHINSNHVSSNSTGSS

For the molecule `CC(C)c1cc(-c2n[nH]c(=O)n2-c2ccc3c(ccn3C)c2)c(O)cc1O` [Ganetespib (STA9090)], the results for the remaining activity at 10 µM on 382 unique human kinases [1] and on 382 unique human kinases [2] were 75.3% and 96.8%, respectively.
Turning to `CC(C)c1cc(-c2n[nH]c(=O)n2-c2ccc3c(ccn3C)c2)c(O)cc1O` [Ganetespib], the remaining activity at 10 µM came out at 96% at 382 unique human kinases [3] and 18.6% at 382 unique human kinases [4].
Regarding `CCNC(=O)c1noc(-c2cc(C(C)C)c(O)cc2O)c1-c1ccc(CN2CCOCC2)cc1` [Luminespib (AUY-922)], on 382 unique human kinases [1], the “% Enzyme Activity (relative to DMSO controls)” value turned out to be 89.64% and the remaining activity at 10 µM is 93%. Also, on 382 unique human kinases [2], the “% Enzyme Activity (relative to DMSO controls)” value was 63.33% and the remaining activity at 10 µM stood at 66.1%.
For `CCNC(=O)c1noc(-c2cc(C(C)C)c(O)cc2O)c1-c1ccc(CN2CCOCC2)cc1` [Luminespib], on 382 unique human kinases [3], the “% Enzyme Activity (relative to DMSO controls)” value is recorded as 101.05% and the remaining activity at 10 µM came to 102%. At 382 unique human kinases [4], the “% Enzyme Activity (relative to DMSO controls)” value is reported as 78.51% and the remaining activity at 10 µM worked out at 78.6%.

The values above are taken from publication PMC8550792, “Evolution of kinase polypharmacology across HSP90 drug discovery” (Cell Chemical Biology, 2021).
